From patent EP0079792A2, “Process for production of urease” (priority 1981, dated 1983)

Experiments:
[1] = system: urease from Arthrobacter parafineus ATCC 15591; experiment: Km determination, crude enzymatic solution (Example 2); format: biochemical
Protocol: The above reagents are mixed with each other and incubated at 37°C for 5 minutes. To the mixture is added 0.01 ml of an enzyme solution, the enzymatic activity of which is to be determined. The absorba^ncy at OD340nm (=E1) after one minute and that at OD340nm (=E2) after two minutes are recorded at 37°C on a spectrophotometer, respectively.
In this example, each of the strains identified in the following Table 1 is cultured in the same manner as described in Example 1 to obtain microbial cells. From the microbial cells, a crude enzymatic solution is prepared to culculate the enzymatic activity and to determine the Km value.

[2] = substrate: NC(N)=O; experiment: purified protein, by the assay type; settings: other: phosphate buffer (pH 7.5), purified enzyme preparate of Example 1

NC(N)=O [urea]
Km [1]: 20 mM

B1: urease from Corynebacterium lilium ATCC 21644 (Corynebacterium glutamicum ATCC 13032) (protein)
chain: MSFEISRKQYTDLYGPTVGDSVRLADTELFLCVEKDYAAIGEEVAFGGGKVIRDGMGQNGTLVRDVDIPDTVITNVIVLDYTGVYKADVALRDGKIFRIGKAGNPNVMENVDIVIGVATDIIAGEGKILTAGGIDTHVHFLGTDQVNTALASGITTMIGGGTGPSQASMATTVTPGQWNTYNMLSAFEGMPMNFGILGKGHGSSKSPLAEQVRAGAIGLKIHEDWGATPSSINTALEVADDMDIQVALHSDTLNEAGFVEDTIEAIAGRVIHTFHTEGAGGGHAPDLIRVAALPNVLPASTNPTLPYTRNTVEEHLDMVMVAHHLNPDIPEDVAFADSRIRAETIAAEDVLHDMGIFSITSSDSQAMGRVGETITRTWQVADHMKRTRGSLTGDAPYNDNNRLRRFIAKYTINPAIAHGVDYVVGSVEEGKFADLVLWDPKFFGVKPDLVIKGGLMVNSLMGDSNGSIPTPQPRTLRNTWGAFGQAVSRSSITFLSQDAIDANVPDLLNLRKQIRGVRGVRNLTKRDMKLNAEMPDIRVDPETYQVFVNGELITSKPAETVPMARRYFLF
Km [2]: 20 mM
